In the test the target is T1, CATH-2 (chicken cathelicidin-2) (Gallus gallus, UniProt Q2IAL7).
T1 construct: gene CATHL2; Fmoc synthesis, unlabelled; cut from the cathelicidin-2 precursor
T1 sequence (Q2IAL7 128-153): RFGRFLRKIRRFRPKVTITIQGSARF
As to the kind of experiment: isothermal titration calorimetry. Format: binding. As to conditions: PBS, 1.5% ethanol, 20 °C; 400 µM CATH-2 titrated into 200 µM cardiolipin (Sigma-Aldrich, source and acyl chains not told); n = 2, SEM; lipid suspension. The source says: isothermal titration calorimetry on CATH-2 (chicken cathelicidin-2)
(Isothermal titration calorimetry measures the heat released or taken up as one component is titrated into another.)

Take cardiolipin: the Kd – broadly, the constant that tells how readily two partners part at equilibrium – stood at 72.1 ± 57.1 nM.
